According to ChEMBL document CHEMBL3885861, “Open TG-GATES”:

Species: Rattus norvegicus
Experiment: Open TG-GATES - Regimen: Single
Type: toxicity, organism-based, Sprague-Dawley
Set-up: regimen Single, gender Male, age 6 weeks
Settings: in vivo, po, route gavage; for Bas / Eos / Fbg / Hb / Ht / Lym / MCHC / MCV / Mono / Neu / RBC / Ret / WBC / Plat: tissue Blood; for KIDNEY_TOTAL: tissue Kidney; for LIVER: tissue Liver; for ALT / AST / BUN / CRE / Ca / Cl / DBIL / GLC / IP / K / LDH / Na / PL / RALB / TBIL / TC / TP / gamma-GTP: tissue Plasma
[1] = 0 mg/kg, 3 h, dose level Control
[2] = 0 mg/kg, 6 h, dose level Control
[3] = 0 mg/kg, 9 h, dose level Control
[4] = 0 mg/kg, 24 h, dose level Control

Compound: C[C@@H]1C[C@H]2[C@@H]3CCC4=CC(=O)C=C[C@]4(C)[C@@]3(F)[C@@H](O)C[C@]2(C)[C@@]1(O)C(=O)CO [DEXAMETHASONE]
- TERMINAL_BW [1]: 213.8 g
- Bas [1]: 0%
- Eos [1]: 1%
- Fbg [1]: 235.6 mg/dL
- Hb [1]: 13 g/dL
- Ht [1]: 39.6%
- Lym [1]: 74.6%
- MCHC [1]: 32.7%
- MCV [1]: 64.5 fL
- Mono [1]: 7%
- Neu [1]: 18%
- RBC [1]: 615 x10_4/ul
- Ret [1]: 8.3%
- WBC [1]: 98.2 x10_2/uL
- KIDNEY_TOTAL [1]: 0.6 g
- LIVER [1]: 10.5 g
- ALT [1]: 38.4 IU/L
- AST [1]: 70.4 IU/L
- BUN [1]: 11.2 mg/dL
- CRE [1]: 0.4 mg/dL
- Ca [1]: 10.9 mg/dL
- Cl [1]: 103.4 meq/L
- DBIL [1]: 0.012 mg/dL
- GLC [1]: 193.2 mg/dL
- IP [1]: 9.8 mg/dL
- K [1]: 4.1 meq/L
- LDH [1]: 79.4 IU/L
- Na [1]: 140.8 meq/L
- PL [1]: 140.6 mg/dL
- RALB [1]: 3.7 g/dL
- TBIL [1]: 0.044 mg/dL
- TC [1]: 79 mg/dL
- TP [1]: 5.3 g/dL
- gamma-GTP [1]: 0.8 IU/L
- TERMINAL_BW [2]: 209.7 g
- Bas [2]: 0%
- Eos [2]: 0.6%
- Fbg [2]: 234.6 mg/dL
- Hb [2]: 13.3 g/dL
- Ht [2]: 40.4%
- Lym [2]: 80.6%
- MCHC [2]: 32.9%
- MCV [2]: 64.6 fL
- Mono [2]: 4.4%
- Plat [2]: 118.9 x10_4/uL
- RBC [2]: 627.4 x10_4/ul
- Ret [2]: 7.5%
- WBC [2]: 103.8 x10_2/uL
- KIDNEY_TOTAL [2]: 0.7 g
- LIVER [2]: 9.7 g
- ALT [2]: 34.2 IU/L
- AST [2]: 65.2 IU/L
- BUN [2]: 10.2 mg/dL
- CRE [2]: 0.4 mg/dL
- Ca [2]: 11 mg/dL
- Cl [2]: 103.8 meq/L
- DBIL [2]: 0.014 mg/dL
- GLC [2]: 164.8 mg/dL
- IP [2]: 9.5 mg/dL
- K [2]: 4.3 meq/L
- LDH [2]: 74.2 IU/L
- Na [2]: 140.2 meq/L
- PL [2]: 149.6 mg/dL
- RALB [2]: 3.9 g/dL
- TBIL [2]: 0.06 mg/dL
- TC [2]: 84.8 mg/dL
- TP [2]: 5.6 g/dL
- gamma-GTP [2]: 0 IU/L
- TERMINAL_BW [3]: 215.1 g
- Bas [3]: 0%
- Eos [3]: 1%
- Fbg [3]: 233.2 mg/dL
- Hb [3]: 13.2 g/dL
- Ht [3]: 39.9%
- Lym [3]: 73.2%
- MCHC [3]: 33%
- MCV [3]: 63.7 fL
- Mono [3]: 7%
- Neu [3]: 19%
- Plat [3]: 125.1 x10_4/uL
- RBC [3]: 626.8 x10_4/ul
- Ret [3]: 7.8%
- WBC [3]: 104.7 x10_2/uL
- KIDNEY_TOTAL [3]: 0.7 g
- LIVER [3]: 9.4 g
- ALT [3]: 30.6 IU/L
- AST [3]: 59.4 IU/L
- BUN [3]: 11 mg/dL
- CRE [3]: 0.3 mg/dL
- Ca [3]: 10.5 mg/dL
- Cl [3]: 104 meq/L
- DBIL [3]: 0.01 mg/dL
- GLC [3]: 171.4 mg/dL
- IP [3]: 10.1 mg/dL
- K [3]: 4.4 meq/L
- LDH [3]: 80.4 IU/L
- Na [3]: 140.8 meq/L
- PL [3]: 141.8 mg/dL
- RALB [3]: 3.8 g/dL
- TBIL [3]: 0.046 mg/dL
- TC [3]: 82.8 mg/dL
- TP [3]: 5.5 g/dL
- gamma-GTP [3]: 0.8 IU/L
- TERMINAL_BW [4]: 229.3 g
- Bas [4]: 0%
- Eos [4]: 1%
- Fbg [4]: 239.6 mg/dL
- Hb [4]: 13.2 g/dL
- Ht [4]: 40.1%
- Lym [4]: 73.4%
- MCHC [4]: 33%
- MCV [4]: 65.6 fL
- Mono [4]: 10.2%
- Neu [4]: 15.6%
- Plat [4]: 124.7 x10_4/uL
- RBC [4]: 611.2 x10_4/ul
- Ret [4]: 7.6%
- WBC [4]: 107 x10_2/uL
- KIDNEY_TOTAL [4]: 0.7 g
- LIVER [4]: 11.3 g
- ALT [4]: 40.6 IU/L
- AST [4]: 67.2 IU/L
- BUN [4]: 15.8 mg/dL
- CRE [4]: 0.4 mg/dL
- Ca [4]: 10.9 mg/dL
- Cl [4]: 103 meq/L
- DBIL [4]: 0.014 mg/dL
- GLC [4]: 192.6 mg/dL
- IP [4]: 8 mg/dL
- K [4]: 4.4 meq/L
- LDH [4]: 89.8 IU/L
- Na [4]: 140 meq/L
- PL [4]: 172.2 mg/dL
- RALB [4]: 3.9 g/dL
- TBIL [4]: 0.04 mg/dL
- TC [4]: 95.4 mg/dL
- TP [4]: 5.7 g/dL
- gamma-GTP [4]: 0 IU/L
- TERMINAL_BW (1 mg/kg, 3 h, dose level Low): 220.4 g
